Reference: patent US7105162B1, “Pharmaceutical composition for immunomodulation based on peptides and adjuvants” (Boehringer Ingelheim International GmbH, priority 1996, dated 2006)

How the values were obtained:
P388D1 cells = assay: Permeabilisation of the cell membrane: LDH release (Cytotox 96); type: cell-based, murine; conditions: isotonic conditions; FIG. 12
Protocol: Peptides can be absorbed by APCs by means of specific mechanisms such as macropinocytosis or receptor-mediated endocytosis (Lanzavecchia, 1996). An alternative mechanism may consist in the polyamino acids making the cell membrane permeable and in this way allowing peptides to diffuse from the medium into the cytoplasm. • a) The possible permeabilisation of the cell membrane was tested by measuring the release of the cytoplasmic enzyme lactate dehydrogenase (LDH) after the incubation of P388D1 cells with polyamino acids (polylysine or polyarginine) under isotonic conditions using the commercially available kit (Cytotox 96, Promega, Madison, Wis., USA) in accordance with the manufacturer's instructions. […] When samples treated with polyamino acids alone were compared, no difference in the release of LDH was found compared with treatment with a mixture of polylysine or polyarginine with peptide. […] The fluorescence emitted by FITC is strongly pH-dependent. In an environment with pH conditions such as those found in endosomes, fluorescence is suppressed. Therefore, FITC-labelled peptides which are absorbed by the cells into the endosomes show reduced fluorescence. When monensin is added, the low pH of the endosomes is neutralised, leading to a measurably greater fluorescence of the internalised FITC-labelled peptides.

APCs = assay: Internalisation of FITC-labelled peptide (monensin treatment, 4° C. versus 37° C.), throughflow cytometry; type: cell-based; conditions: incubated at 37° C., then 50 μM monensin at 4° C.; FIG. 13
Protocol: Peptides can be absorbed by APCs by means of specific mechanisms such as macropinocytosis or receptor-mediated endocytosis (Lanzavecchia, 1996). An alternative mechanism may consist in the polyamino acids making the cell membrane permeable and in this way allowing peptides to diffuse from the medium into the cytoplasm. • a) The possible permeabilisation of the cell membrane was tested by measuring the release of the cytoplasmic enzyme lactate dehydrogenase (LDH) after the incubation of P388D1 cells with polyamino acids (polylysine or polyarginine) under isotonic conditions using the commercially available kit (Cytotox 96, Promega, Madison, Wis., USA) in accordance with the manufacturer's instructions. […] The fluorescence emitted by FITC is strongly pH-dependent. In an environment with pH conditions such as those found in endosomes, fluorescence is suppressed. Therefore, FITC-labelled peptides which are absorbed by the cells into the endosomes show reduced fluorescence. When monensin is added, the low pH of the endosomes is neutralised, leading to a measurably greater fluorescence of the internalised FITC-labelled peptides.
The cells were incubated with a mixture of polyarginine (average molecular weight range 100,000, chain length 490) and fluorescence-labelled peptide at 4° C. or 37° C. […]

Sequence: LFEAIEGFI [FITC-labelled model peptide antigen, MHC Kd-restricted, derived from influenza haemagglutinin]
- LDH released from cells (P388D1 cells): no measurable LDH-activity
- change in fluorescence after monensin treatment (APCs): only a slight increase in fluorescence
